In paper PMC6123649, “Structural basis for specific inhibition of the highly sensitive ShHTL7 receptor” (EMBO Reports, 2018):

Assays:
ShHTL7S95C = experiment: Intrinsic Triton fluorescence binding assay; set-up: species or system Striga hermonthica; conditions: inactive ShHTL7S95C; buffer with 0.005% Tween‐20; converged after 2.5 h of incubation; read-out: dissociation constant (Kd), intrinsic Triton fluorescence
ShHTL7 L143Y mutant = experiment: Intrinsic Triton fluorescence binding assay; set-up: species or system Striga hermonthica
Description: Triton X‐100 has an excitation and emission wavelength of 275 and 302 nm, respectively. ShHTL7, ShHTL7‐L143Y, AtD14, and OsD14 were incubated in 50 mM Tris–HCl pH 7.5, 150 mM NaCl, with or without 0.005% Tween‐20, at concentrations ranging from 10 μM to 1 nM (obtained using serial dilutions) with 154 nM of Triton X‐100 for 1–2 h, and fluorescence values were then measured by SpectraMax i3 (Molecular Devices) at excitation and detection wavelengths of 275 and 302 nm, respectively. […] Data were normalized to the background fluorescence from the protein to obtain the change in Triton X‐100 fluorescence intensity. To determine the K d, the changes in Triton X‐100 fluorescence intensity were plotted against the concentration of the protein using the single binding site model implemented in GraphPad (Prism 6).

ShHTL7‐L143Y = experiment: YLG hydrolysis assay; format: biochemical, Striga hermonthica
Description: In vitro YLG hydrolysis assays were performed using 3 μM of ShHTL7, ShHTL7‐L143Y, AtD14, and OsD14 in a reaction buffer (1× PBS) with 0.1% dimethyl sulfoxide (DMSO) in a 100 μl volume on a 96‐well black plate (Greiner). The fluorescent intensity was measured by SpectraMax i3 (Molecular Devices) using an excitation wavelength of 480 nm and a detection wavelength of 520 nm. ShHTL7, ShHTL7‐L143Y, AtD14, and OsD14 were mixed with Triton X‐100, using serial dilutions to cover the Triton X‐100 concentration range from 5 μM until 4.87 nM. Protein‐Triton mixes were pre‐incubated for 30 min. 1 μM YLG (Tokyo Chemical Industry Co. Ltd.) was then added, and the assay was incubated for 60 min. The change in fluorescence observed over the course of 1 h incubation of YLG in buffer without protein was subtracted from the data collected in the presence of protein. The resulting relative fluorescence values were analyzed. The inhibitory curves and IC50 values were plotted using GraphPad (Prism 6) four‐parameter logistic curve. The rate of YLG hydrolysis by ShHTL7 was recorded following the above method at 10‐min interval for 2 h.

ShHTL7 = molecular target: T1, ShHTL7 (Striga hermonthica, UniProt A0A0M3PNA2); experiment: Drug affinity response target stability (DARTS) assay; format: binding; conditions: 100 μM compound; proteinase K 10 μg/ml
T1 sequence (A0A0M3PNA2 1-271): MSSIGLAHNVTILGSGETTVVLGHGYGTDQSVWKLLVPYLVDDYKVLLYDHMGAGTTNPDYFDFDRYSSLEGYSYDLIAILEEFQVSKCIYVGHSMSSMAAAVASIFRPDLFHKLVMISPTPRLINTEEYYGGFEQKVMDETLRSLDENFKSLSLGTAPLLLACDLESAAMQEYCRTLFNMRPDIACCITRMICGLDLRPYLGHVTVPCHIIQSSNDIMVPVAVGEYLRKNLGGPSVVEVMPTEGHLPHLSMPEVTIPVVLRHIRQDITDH
Description: ShHTL7 and mutants were diluted to a concentration of 30 μM in 50 mM Tris–HCl pH 7.5, 150 mM NaCl, 0.005% Tween‐20, incubated with GR24 at final concentration of 100 μM for 5 min, and separately with 100 μM Triton X‐100 for 2 h. One sample was kept aside for use as an undigested control. Proteinase K (Hampton Research) was then added to ShHTL7 protein to a final protease concentration of 10 μg/ml. Reactions were incubated at room temperature for 5 min and then SDS–PAGE loading buffer was added to stop the reaction, and the samples were immediately boiled for 3 min. Equal amounts of each sample, corresponding to 10 μg of protein, were run on a 4–20% gradient polyacrylamide gel (Bio‐Rad) and analyzed by Coomassie Blue staining 32.

[1] = tested on: GR24‐dependent interaction of ShHTL7 with ShMAX2; experiment: GST pulldown of ShMAX2; format: biochemical, Striga hermonthica; conditions: pre‐incubation of ShHTL7 with Triton; 20 μM GR24
Description: (§1) Purified GST‐ShHTL7 wt, ShHTL7 L143Y, and ShHTL7‐H246N mutants were bound to the Glutathione Sepharose 4B Beads, where Triton is used in the lysis step and in certain samples Tween‐20 was used instead of Triton. Bound proteins were incubated with 20 μM GR24 and His6‐ShMAX2 lysate for 2 h and then washed with lysis buffer for three times and then ShHTL7 wt and mutants were eluted with the addition of 20 mM reduced glutathione. Thus, eluted protein was subjected to Western blot using antibody specific to 6XHis (anti‐His).

[2] = tested on: ShHTL7 L143Y binding to ShMAX2; experiment: GST pulldown of ShMAX2; format: biochemical, Striga hermonthica
Description: as §1

[3] = tested on: rice seeds cv. Nipponbare; experiment: Rice seed germination assay and growth of seedlings; format: in vivo; conditions: 15 μM of Triton
Description: The rice seeds cv. Nipponbare were surface‐sterilized using 50 ml (2.5%) sodium hypochlorite with 0.4% of Tween‐20 for 15 min. After six subsequent washing steps with sterilized water, the rice seeds were kept in water at 30°C for overnight imbibition. About 2 ml of Triton X‐100 concentrations ranging from 1 to 100 μM and sterile MilliQ water (control) was added in 24‐well plates with six replications. One sterilized rice seed was put in each well and allowed to germinate for 48 h at 30°C. The germinated (radicle emergence) and non‐germinated seeds were recorded, and germination percentage was calculated. Then, same seeds were allowed to grow under light in growth cabinet for another 1 week. The length of […] seedlings was measured with roller and averaged.

Orobanche cumana = tested on: Orobanche cumana; set-up: method as in PMID 23915294; conditions: concentrations above 0.001%; cited from earlier work
Orobanche minor = tested on: Orobanche minor; set-up: method as in PMID 23915294; conditions: concentrations above 0.001%; cited from earlier work

Triton X-100
Kd (ShHTL7S95C): 195 ± 21 nM | binding to ShHTL7 L143Y mutant in vitro (ShHTL7 L143Y mutant): failed to bind | inhibition of hydrolysis activity of ShHTL7 L143Y (ShHTL7‐L143Y): did not inhibit | protection of ShHTL7 from digestion by proteinase K (ShHTL7): efficiently protected | effect on GR24‐dependent interaction of ShHTL7 with ShMAX2 [1]: inhibited | inhibition of ShMAX2 binding of ShHTL7 L143Y [2]: did not inhibit | effect on rice seed germination [3]: did neither inhibit | effect on rice seedling growth [3]: nor affected seedling growth | effect on seed germination (Orobanche cumana): hindered seed germination | effect on seed germination (Orobanche minor): hindered seed germination
